Patent publication US7655620B2, “Use of one or more metal carriers to selectively kill mammalian cells” (Cancure Laboratories, LLC, priority 2005, dated 2010)
“Also recorded” adds a separate entry of the source.

Assays:
cancer cells = experiment: Killing of cancer cells by dithiocarbamates in the absence or presence of cadmium/zinc; assay type: cell-based; conditions: for effectiveness in killing cancer cells in comparison to CCK3: 10-50 μM, absence or presence of 20 μM CdCl2/ZnCl2; for induction of cell death in the presence of cadmium or zinc: in vitro
Method: A large number of dithiocarbamates can be synthesized that, similar to 3-aminopropylpiperidine-1-carbodithioate (CCK3), contain a free amino group. Several of these compounds were synthesized and tested (in the range of 10-50 μM concentration) on cancer cells in the absence or presence of 20 μM CdCl2/ZnCl2 in comparison to CCK3, as follows. […] Similarly, 1-{[(3-aminopropyl)thio]carbonothiol}pyrrolidine-2-carboxilic acid.HCl salt (for structure see FIG. 1) was ineffective both in the absence and presence of cadmium/zinc. The last two compounds may be ineffective because the presence of carboxyl group may interfere with proper binding of cadmium and zinc to the molecule. 3-Aminopropylpyrrolidine-1-carbodithionate. […] From this list, it appears that not every free amino group-containing dithiocarbamate can effectively kill cells in the presence of cadmium and zinc. In some of these cases the metal atom may bind to the dithiocarbamate molecule too strongly (covalently), not allowing dissociation of the metal from the molecule once inside the cell. After comparison of the above compounds with the effects of CCK3, further experiments were principally carried out with PDC and CCK3. These are representative compounds that can be the most effectively and most economically used when either no further modification of the molecule is required (PDC) or when modification with a targeting moiety is required (CCK3).

MCF-7 cells [1] = experiment: Cell death judged from cell morphology (photographs); assay type: cell-based, human; conditions: 20 μM CCK3, 120 μg/ml cadmium/MT, alone or combined; 8 hours; 10% serum
Method: (§1) The cells were cultured as described in Example 4.

[2] = tested on: T47D human mammary gland ductal carcinoma cells; experiment: as above; assay type: cell-based; conditions: 5 μM CCK3, 10 μM cadmium, alone or in combination; 4 hours; 10% serum-containing medium
T47D cells = experiment: [3H]thymidine DNA synthesis; assay type: cell-based, human; conditions: 5 μM CCK3, 10 μM cadmium, alone or in combination; 4 hours; [3H]thymidine during last 30 min
Method: (§2) Biochem. Biophys. Res. Commun. 213, 980-985]. […] Survival values obtained with untreated cells were considered 100%. […] Cancer Res. 47, 936-942].
T47D Cells were cultured in RPMI 1640 cell culture medium (see Gibco Catalogue) supplied with 2 mM L-glutamine, 10 mM Hepes, 1 mM sodium pyruvate, 4.5 g/L glucose, 1.5 g/L sodium bicarbonate, 0.2 I.U. bovine insulin/ml, and 10% fetal bovine serum. The medium was changed for fresh 10% serum-containing medium 2 hours prior to treatments. For the treatments, the cells were incubated in triplicate in 12-well plates. The cells were untreated (FIG. 2A) or treated with 5 μM CCK3 alone (FIG. 2B), 10 μM cadmium alone (FIG. 2C), or 5 μM CCK3 and 10 μM cadmium in combination (FIG. 2D) for 4 hours in 10% serum-containing medium when the photographs were taken. […] Finally, cells were incubated with [^3H]thymidine (1 μCi/ml) during the last 30 min of treatment to determine DNA synthesis. Cadmium and CCK3 decreased DNA synthesis by 13 and 8% respectively, while in combination they had practically 100% inhibitory effect.

[3] = tested on: MDA-MB-231 human mammary gland adenocarcinoma cells; experiment: Cell death judged from cell morphology (photographs); assay type: cell-based; conditions: 5 μM CCK3, 10 μM cadmium, alone or in combination; 60 min; 10% serum-containing medium
Method: (§3) MDA-MB-231 cells were cultured in Leibovitz's L-15 medium and 10% fetal bovine serum; the medium was changed 2 hours prior to treatments. For the treatments, cells were incubated in triplicate in 12-well plates. A typical experiment with these cells is illustrated in FIG. 3. The cells were untreated (FIG. 3A) or treated with 5 μM CCK3 (FIG. 3B), 10 μM cadmium (FIG. 3C), or 5 μM CCK3+10 μM cadmium (FIG. 3D) for 60 min in 10% serum-containing medium. […] In some experiments, cells were also incubated with [^3H]thymidine (1 μCi/ml) during the last 30 min of treatment to determine DNA synthesis. Cadmium and […] decreased DNA synthesis by 6 and 12%, while in combination they had 100% inhibitory effect.
(§4) The cells were cultured as described in Example 4. The cadmium/MT contained 5 cadmium atoms per one MT molecule while zinc/MT contained 5 zinc atoms per one MT molecule. […] Thus, in this cell line cadmium/MT+PDC killed cells more rapidly and efficiently compared to the same amount of zinc/MT+PDC.

[4] = tested on: ZR-75-1 human breast cancer cells; experiment: as above; assay type: cell-based
Method: ZR-75-1 cells were cultured in triplicate in 12-well plates in the medium described in Example 4. The cadmium/MT contained 5 atoms of cadmium and 1 atom of zinc, while the zinc/MT contained 5 atoms of zinc and 1 atom of cadmium per one MT molecule. ZR-75-1 cells were incubated in 10% serum-containing medium for 24 h in the absence (FIG. […] 6D), 240 μg/ml of zinc/MT (FIG. […] 6F).
(§5) Cells were cultured in triplicate in 12-well plates as described in Example 4. The ratio of cadmium and zinc in cadmium/MT was 5:1 per one MT molecule. ZR-75-1 cells were incubated in 10% serum-containing medium for 8 hours in the absence (FIG. 7A) or presence of 20 μM CCK3 (FIG. 7B), 120 μg/ml of cadmium/MT (FIG. 7C), or 120 μg/ml of cadmium/MT+20 μM CCK3 (FIG. 7D).

[5] = tested on: cancer cells (CaOV-3, T47D and PC-3); experiment: MTT assay / killing, statements over several cancer cell lines (metal/MTLP-25); assay type: cell-based, human; conditions: 20 μM CCK3, 100 μg/ml metal/MTLP-25, 24 hours; summary of Table 1
Method: The concentration range for these cadmium/MTLP-25 effects in some embodiments is 10-600 μg/ml, while in other embodiments, the concentration range is 50-200 μg/ml. Therapeutically effective concentrations of metal/MTLP-25 and CCK3 or PDC exert maximal effects on tumors without causing significant toxicity.
PC-3 human prostate adenocarcinoma cells were maintained and treated in Ham's F12K medium containing 7% fetal bovine serum. The CaOV-3 human ovarian adenocarcinoma cells were maintained and treated in Dulbecco's modified Eagle's medium containing 4 mM L-glutamine, 1.5 g/L sodium bicarbonate, 4.5 g/L glucose, 1 mM sodium pyruvate and 10% fetal bovine serum. T47D were maintained and treated in RPMI 1640 cell culture medium (see Gibco Catalogue) supplied with 2 mM L-glutamine, 10 mM Hepes, 1 mM sodium pyruvate, 4.5 g/L glucose, 1.5 g/L sodium bicarbonate, 0.2 I.U. bovine insulin/ml, and 10% fetal bovine serum. The cells were incubated in 96-well plates in the medium described above for 24 hours in the absence or presence of 20 μM CCK3 and/or 100 μg/ml of cadmium/MTLP-25 or 100 μg/ml of zinc/MTLP-25 as indicated in Table 1. After the treatment period, the MTT assay was used to determine the relative cell number of viable cells. Errors are expressed as S.D. (n=8 for each treatment).

MCF-7 cells [6] = experiment: Trypan blue exclusion assay; assay type: cell-based, human; conditions: 20 μM CCK3, 120 μg/ml cadmium/MT, alone or combined; 8 hours
Method: as §2, §1

[7] = tested on: various cancer and human normal 966 SK skin fibroblasts; experiment: MTT assay, statements over all cell lines of Example 6; assay type: cell-based; conditions: CCK3 10 μM, cadmium/MT 60 μg/ml, alone or combined, 24 hour
Method: as §2
MCF-7 estrogen receptor positive human breast carcinoma cells and CaOV-3 human ovarian adenocarcinoma cells were grown in Dulbecco's modified Eagle's medium containing 4 mM L-glutamine, 1.5 g/L sodium bicarbonate, 4.5 g/L glucose, 1 mM sodium pyruvate and 10% fetal bovine serum. T47D human mammary gland ductal carcinoma cells and ZR-75-1 estrogen receptor positive human mammary gland ductal carcinoma cells were cultured in RPMI 1640 medium as indicated above. MB-468 and MB-231 human mammary gland adenocarcinoma cells were maintained in Leibovitz's L-15 medium as described above. AN3CA human endometrial adenocarcinoma and 966 SK normal human skin fibroblasts were cultured in Eagles's minimum essential medium supplemented with 0.1 mM non-essential amino acids and 10% fetal bovine serum. The preparation of MT (from Sigma-Aldrich, Inc.) used in this experiment contained about 4 ions of cadmium and only about 0.3 ions of zinc per MT molecule. […] The MTT assay was used for the determination of relative cell numbers. Data are illustrated in FIG. 4 as rates of growth inhibition (maximum inhibition=100%) in comparison to values without treatment. The error bars indicate S.D. (n=8). […]

ZR-75-1 cells = tested on: ZR-75-1 cells
Method: Biochem. Biophys. Res. Commun. […] Survival values obtained with untreated cells were considered 100%.
ZR-75-1 cells were cultured in triplicate in 12-well plates in the medium described in Example 4. The cadmium/MT contained 5 atoms of cadmium and 1 atom of zinc, while the zinc/MT contained 5 atoms of zinc and 1 atom of cadmium per one MT molecule. ZR-75-1 cells were incubated in 10% serum-containing medium for 24 h in the absence (FIG. 6A) or presence of 15 μM CCK3 (FIG. 6B), 60 μg/ml of cadmium/MT (FIG. 6C), 60 μg/ml of cadmium/MT+15 μM CCK3 (FIG. 6D), 240 μg/ml of zinc/MT (FIG. 6E), or 240 μg/ml of zinc/MT+15 μM CCK3 (FIG. 6F).
as §5

MDA-MB-231 cells = experiment: [3H]thymidine DNA synthesis; assay type: cell-based, human; conditions: 60 min treatment, 10 μM cadmium, alone or in combination; [3H]thymidine during last 30 min
Method: as §2, §3, §4

`Cl.NCCCSC(=S)N1CCCC1C(=O)O` (stereo not shown) [1-{[(3-aminopropyl)thio]carbonothiol}pyrrolidine-2-carboxilic acid.HCl salt] was tested, and the “effectiveness in killing cancer cells in comparison to CCK3” value (“effectiveness in killing cancer cells” for short) (cancer cells) was “ineffective”.
For `NCCCSC(=S)N1CCCCC1C(=O)O` (stereo not shown) [1-{[(3-aminopropyl)thio]carbonothioyl}piperidine-2-carboxilic acid], the “effectiveness in killing cancer cells” value (cancer cells) was “not effective at all”.
`C[N+](C)(C)CCOC(=S)SCCCN.[Cl-]` [2({[(3-aminopropyl)thio]carbonothionyl}oxy)-N,N,N-trimethylethanolamine-chloride] was tested, and the “effectiveness in killing cancer cells” value (cancer cells) was “less effective than CCK3”.
In the case of `Cl.NCCCSC(=S)N1CCCC1` [3-Aminopropylpyrrolidine-1-carbodithionate. HCl salt], the “effectiveness in killing cancer cells” value (cancer cells) is reported as “significantly less effective than CCK3”.
`Cl.NCCCSC(=S)N1CCCCC1` [CCK3, 3-aminopropylpiperidine-1-carbodithioate.HCl salt] was tested, and the “cell death indicated by cell morphology” value (MCF-7 cells [1]) was “failed to significantly alter cell morphology”, the “cell death indicated by cell morphology (cell rounding)” value [2] was “no effects on cell morphology” and the “decrease of DNA synthesis” value (T47D cells) was 8%. The “cell death indicated by cell morphology (cell rounding)” value [3] was “no effects on cell morphology”, the “cell death indicated by cell morphology” value ([4]; 20 μM CCK3, 120 μg/ml cadmium/MT, alone or combined, 8 hours, 10% serum) was “failed to significantly alter cell morphology” and the “cell death indicated by cell morphology (FIG. 6 legend)” value ([4]; CCK3 10 μM, cadmium/MT 60 μg/ml, zinc/MT 240 μg/ml, alone or MT+CCK3, 24 hours) was “failed to significantly alter cell morphology”. The “reduction of the viability of cancer cells” value [5] was “no effects”, the “cells killed (trypan blue exclusion assay)” value (MCF-7 cells [6]) was “practically no effects on viability” and the “cell viability (FIG. 4)” value [7] was “significantly smaller than the combined effects”. The “induction of cell death in the presence of cadmium or zinc” value (cancer cells) was “retains its ability to carry metals inside the cells resulting in cell death; also recorded: killed the cells”, the “cells killed (trypan blue exclusion assay)” value (ZR-75-1 cells; 15 μM CCK3, 60 μg/ml cadmium/MT, 240 μg/ml zinc/MT, alone or MT+CCK3, 24 h) was “practically no effects” and the “cells with decreased viability / killed (trypan blue exclusion assay)” value (ZR-75-1 cells; 20 μM CCK3, 120 μg/ml cadmium/MT, alone or combined, 8 hours) was 16%.
With `S=C(S)N1CCCC1` [PDC, pyrrolidinecarbodithioic acid, reference compound] the “decrease of DNA synthesis” value (MDA-MB-231 cells) was 12%.
For `CCN(CC)C(=S)S` [diethyldithocarbamate, reference compound], the “induction of cell death in the presence of cadmium or zinc” value (cancer cells) was “as effective as CCK3”.
For cadmium, the “cell death indicated by cell morphology (cell rounding)” value [2] was “no effects on cell morphology”, the “decrease of DNA synthesis” value (T47D cells) was 13% and the “cell death indicated by cell morphology (cell rounding)” value [3] was “no effects on cell morphology”. For the same molecule, the “decrease of DNA synthesis” value (MDA-MB-231 cells) was 6%.
